# Reference: EP1599478B1, “DIHYDROPTERIDINONES, METHOD FOR THE PRODUCTION AND USE THEREOF IN THE FORM OF DRUGS” (Boehringer Ingelheim Pharma GmbH & Co.KG, priority 2003, dated 2004)
# Where two headings read alike, the source gives them in different places.
# System: HeLaS3 Zellen
# Test: Cytotoxicity test on cultured human tumour cells (AlamarBlue)
# Assay type: cell-based
# Details: read-out: HELA
# Source text: Die Wirkung der erfindungsgemäBen Verbindungen wurde im Cytotoxizitätstest an kultivierten humanen Tumorzellen und/oder in einer FACS-Analyse, beispielsweise an HeLaS3-Zellen, bestimmt.
# Messung der Cytotoxizität an kultivierten humanen Tumorzellen
# Zur Messung der Cytotoxizität an kultivierten humanen Tumorzellen wurden Zellen der zervikalen Carcinoma Tumorzell-Linie HeLaS3 (erhalten von American Type Culture Collection (ATCC)) in Ham's F12 Medium (Life Technologies) und 10% fötalem Rinderserum (Life Technologies) kultiviert und in der log-Wachstumsphase geerntet. Anschließend wurden die HeLaS3 Zellen in 96-well Platten (Costar) mit einer Dichte von 1000 Zellen pro well eingebracht und über Nacht in einem Inkubator (bei 37°C und 5 % CO2) inkubiert, wobei auf jeder Platte 6 wells nur mit Medium gefüllt wurden (3 wells zur Mediumkontrolle, 3 wells zur Inkubation mit reduzierten AlamarBlue). Die Wirksubstanzen wurden in verschiedenen Konzentrationen (gelöst in DMSO; Endkonzentration: 1%) zu den Zellen zugegeben (jeweils als Dreifachbestimmung) Nach 72 Stunden Inkubation wurden zu jeden well 20 µl AlamarBlue (AccuMed International) zugesetzt, und die Zellen für weitere 7 Stunden inkubiert. Zur Kontrolle wurde zu 3 wells je 20 µl reduziertes Alamar Blue gegeben (AlamarBlue Reagenz, das für 30 min autoklaviert wurde). Nach 7 h Inkubation wurde der Farbumsatz des AlamarBlue Reagenz in den einzelnen wells in einem Perkin Elmer Fluoreszenspektrophotometer bestimmt (Exitation 530 nm, Emission 590 nm, Slits 15, Integrate time 0.1). Die Menge an umgesetzten AlamarBlue Reagenz repräsentiert die metabolische Aktivität der Zellen. Die relative Zellaktivität wurde in Prozent der Kontrolle (HeLa S3 Zellen ohne Inhibitor) berechnet und die Wirkstoffkonzentration, die die Zellaktivität zu 50% hemmt (IC^50) abgeleitet. Die Werte wurden hierbei aus dem Mittelwert von drei Einzelbestimmungen - unter Korrektur des Leerwertes (Mediumkantrolle)- berechnet.
# [1] = HeLa S3, HeLa cells, unit inferred
SMILES,"IC50 (HeLa S3, 72 h) [nM]",IC50 [1] [nM]
CC[C@@H]1C(=O)N(C)c2cnc(Nc3ccc(C(=O)NC4CCN(C)CC4)cc3OC)nc2N1C1CCCC1 [compound 46],12,
COc1cccc(N2c3nc(Nc4ccc(C(=O)NC5CCN(C)CC5)cc4OC)ncc3N(C)C(=O)[C@H]2C)c1 [compound 224],,1060
COc1cccc(N2c3nc(Nc4ccc(C(=O)NC5CCN(C)CC5)cc4)ncc3N(C)C(=O)[C@H]2C)c1 [compound 225],,1180
COc1cc(C(=O)NC2CCN(C)CC2)ccc1Nc1ncc2c(n1)N(c1ccccc1OC)[C@H](C)C(=O)N2C [compound 226],,295
COc1cc(C(=O)NC(C)(C)CN2CCCC2)ccc1Nc1ncc2c(n1)N(c1ccccc1OC)[C@H](C)C(=O)N2C [compound 227],,853
COc1cc(C(=O)NC2CCNCC2)ccc1Nc1ncc2c(n1)N(C1CCCC1)[C@H](C)C(=O)N2C [compound 238],,15
CC[C@@H]1C(=O)N(C)c2cnc(Nc3ccc(C(=O)NC(C)(C)CN4CCOCC4)cc3OC)nc2N1C1CCCC1 [compound 239],,51
COc1cc(C(=O)NC(C)(C)CN(C)C)ccc1Nc1ncc2c(n1)N(C1CCCCC1)[C@H](C)C(=O)N2C [compound 240],,17
CC[C@@H]1C(=O)N(C)c2cnc(Nc3ccc(C(=O)NC(C)(C)CN4CCN(C)CC4)cc3OC)nc2N1CCC(C)C [compound 241],,44
